Key:
intracellular Ca++ = test: Elevation of intracellular Ca++ concentrations; assay type: cell-based; conditions: 100 nM NPY after 100 nM NPY (18-36)
[1] = tested on: hypertensive actions of NPY; test: NPY-induced increase in MAP in animals pretreated with NPY(18-36); assay type: in vivo, rat; conditions: NPY 1 μg intra-arterially, 3 animals
Protocol: (§1) Saline solutions of the peptides are injected intra-arterially into conscious rats, and arterial pressure is monitored via an indwelling femoral cannula directly coupled to a pressure transducer. […] Control animals receive saline vehicle alone.

conscious rats = test: Effect on mean arterial blood pressure (MAP) and heart rate after intra-arterial injection in conscious rats; assay type: in vivo, rat
Protocol: as §1
Saline solutions of the peptides were administered intraarterially in a 100-μL bolus in an amount equal to about 0.4 mg/Kg body weight.

Compound: Neuropeptide Y [NPY]
- elevation of intracellular Ca++ by NPY after addition of NPY(18-36) (intracellular Ca++): to the same extent as under control conditions
- increase in MAP obtained by NPY administration ([1]; animals pretreated with NPY(18-36) 300 μg): 28±5 mmHg
- increase in MAP obtained by NPY administration ([1]; control animals): 32±5 mmHg

Compound: CC[C@H](C)[C@H](NC(=O)[C@H](Cc1ccc(O)cc1)NC(=O)[C@H](Cc1c[nH]cn1)NC(=O)[C@H](CCCNC(=N)N)NC(=O)[C@H](CC(C)C)NC(=O)[C@H](C)NC(=O)[C@H](CO)NC(=O)[C@H](Cc1ccc(O)cc1)NC(=O)[C@H](Cc1ccc(O)cc1)NC(=O)[C@H](CCCNC(=N)N)NC(=O)[C@H](C)NC(=O)[C@@H](N)CC(C)C)C(=O)N[C@@H](CC(N)=O)C(=O)N[C@@H](CC(C)C)C(=O)N[C@H](C(=O)N[C@H](C(=O)N[C@@H](CCCNC(=N)N)C(=O)N[C@@H](CCC(N)=O)C(=O)N[C@@H](CCCNC(=N)N)C(=O)N[C@@H](Cc1ccc(O)cc1)C(N)=O)[C@@H](C)O)[C@@H](C)CC [pNPY(17-36)]
- decrease in MAP at five and ten minutes after administration (conscious rats): significantly decrease MAP

Reference: US5328899A, “NPY peptide analogs” (The Salk Institute for Biological Studies, priority 1992, dated 1994)
